Assay [1] addresses Cannabinoid receptor 1 (Rattus norvegicus, UniProt P20272).
In assay [2] the target is T1, Cannabinoid receptor 2 (Rattus norvegicus, UniProt Q9QZN9).
T1 sequence (Q9QZN9 whole entry): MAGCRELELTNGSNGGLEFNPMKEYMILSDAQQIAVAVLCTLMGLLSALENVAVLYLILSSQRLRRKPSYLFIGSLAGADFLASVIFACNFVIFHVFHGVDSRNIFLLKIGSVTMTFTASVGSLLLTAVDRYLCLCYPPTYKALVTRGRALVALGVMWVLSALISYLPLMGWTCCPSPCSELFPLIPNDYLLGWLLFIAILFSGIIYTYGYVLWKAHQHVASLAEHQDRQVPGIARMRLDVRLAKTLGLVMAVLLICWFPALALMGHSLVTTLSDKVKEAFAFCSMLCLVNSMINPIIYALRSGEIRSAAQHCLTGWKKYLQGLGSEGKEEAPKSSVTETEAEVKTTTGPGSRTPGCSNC

The target of assay [3] is Cannabinoid receptor 1 (Mus musculus, UniProt P47746).
Assay [4] has as its target Cannabinoid receptor 2 (Mus musculus, UniProt P47936).

Chain of Cannabinoid receptor 2 (Mus musculus, UniProt P47936) (P47936 whole entry): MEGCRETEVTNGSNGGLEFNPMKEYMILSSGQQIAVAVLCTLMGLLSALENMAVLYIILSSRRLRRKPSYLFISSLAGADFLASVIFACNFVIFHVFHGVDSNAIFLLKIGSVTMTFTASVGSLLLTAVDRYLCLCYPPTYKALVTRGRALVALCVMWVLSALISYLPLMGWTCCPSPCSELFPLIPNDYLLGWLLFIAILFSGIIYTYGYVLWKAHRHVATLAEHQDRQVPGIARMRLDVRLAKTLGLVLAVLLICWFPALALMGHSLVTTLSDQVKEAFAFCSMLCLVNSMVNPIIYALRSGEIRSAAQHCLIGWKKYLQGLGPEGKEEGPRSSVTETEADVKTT
Chain of Cannabinoid receptor 1 (Rattus norvegicus, UniProt P20272) (P20272 whole entry): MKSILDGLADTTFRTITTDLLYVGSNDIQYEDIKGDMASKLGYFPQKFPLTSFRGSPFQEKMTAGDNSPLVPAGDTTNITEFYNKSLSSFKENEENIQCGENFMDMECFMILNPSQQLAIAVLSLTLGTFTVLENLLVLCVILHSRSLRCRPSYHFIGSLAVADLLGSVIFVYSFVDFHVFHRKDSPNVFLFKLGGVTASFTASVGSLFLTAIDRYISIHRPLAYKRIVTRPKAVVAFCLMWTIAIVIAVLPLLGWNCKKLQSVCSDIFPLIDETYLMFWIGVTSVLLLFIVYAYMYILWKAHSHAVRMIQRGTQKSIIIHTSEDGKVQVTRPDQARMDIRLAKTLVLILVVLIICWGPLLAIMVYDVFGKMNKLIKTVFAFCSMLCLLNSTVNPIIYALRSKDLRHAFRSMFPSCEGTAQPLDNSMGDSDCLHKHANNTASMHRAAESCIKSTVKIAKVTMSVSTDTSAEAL
Chain of Cannabinoid receptor 1 (Mus musculus, UniProt P47746) (P47746 whole entry): as the sequence (P20272 whole entry) above, with E95D counted along it

As a reminder, the Ki is the equilibrium dissociation constant of an inhibitor or competing ligand from its target. In the case of `CCCCCOc1c(OC)ccc2cc(C(=O)NCc3ccc4c(c3)OCO4)c(=O)[nH]c12` [N-(1,3-Benzodioxole-5-ylmethyl)-2-oxo-7-methoxy-8-pentoxy-1,2-dihydro-3-quinolinecarboxamide], the Ki was determined as 1050 nM on Cannabinoid receptor 1 [1], 0.38 nM at Cannabinoid receptor 2 [2], 1060 nM at Cannabinoid receptor 1 [3] and 1.55 nM at Cannabinoid receptor 2 [4].

Consider `CCCCCc1cc(O)c2c(c1)OC(C)(C)[C@@H]1CCC(C)=CC21` (stereo partly specified) [Tetrahydrocannabinol], for which the Ki on Cannabinoid receptor 2 [4] amounted to 1.73 nM.

With `Cc1c(C(=O)c2cccc3ccccc23)c2cccc3c2n1[C@H](CN1CCOCC1)CO3` [WIN55212-2], the Ki at Cannabinoid receptor 2 [4] is 0.56 nM.
